Reference: patent publication US12588689B2, “Feed additive composition containing erythritol” (EASY BIO, INC, priority 2020, dated 2026)
Marks after values point to notes of the source that are not given here.

Test system: broiler chickens (Ross 308)
Experiment: Broiler chicken specification test, composition containing erythritol (noise and high temperature stress)
Type: in vivo
Description: To investigate the influence of composition containing erythritol on high temperature stress reduction in summer season, 1,280 broiler chickens (Ross 308; male and female chickens) with average weight of 44.0 g and 1 day old were divided into eight treatment groups with 10 repetitions, and then, 16 chickens were arbitrarily located in total 80 fences, thereby performing breeding tests. The mixing rates represent weight ratios, and additives by treatment group are post-formulated in a farm. The erythritol (99%) used in the formulation was purchased at Vision Pharmalab Co., Ltd., and the beta-glucan was used with Biolife (ENT Co., Ltd., 40 to 50% beta-glucan content) used in the fourth embodiment of the present invention. • Control group (CON): Formulated feed • E: Formulated feed+0.02% erythritol • B: Formulated feed+0.02% beta-glucan • L: Formulated feed+0.02% lipidol • E+B: Formulated feed+0.02% erythritol+0.02% beta-glucan • E+L: Formulated feed+0.02% erythritol+0.02% lipidol • B+L: Formulated feed+0.02% beta-glucan+0.02% lipidol • E+B+L: Formulated feed+0.02% erythritol+0.02% beta-glucan+0.02% lipidol
The feed and water were sufficiently supplied and freely fed. So as to cause stress, 80 to 100 dB noise was produced two times per a day for ten minutes, and to cause high temperature stress, Temperature-Humidity Index (THI) as shown in FIG. 4 was kept.
The weights and feed intake were measured on week 1, week 3, and week 5 to calculate weight gain per day, feed intake per day, and feed conversion ratios (FCR), and the calculated results are listed in Table 6, together with mortality rates.

SMILES: OC[C@@H](O)[C@@H](O)CO [E, erythritol]
- Feed conversion ratio (Step 1 (1~7 days of age)): 1.36
- Feed intake (Step 1 (1~7 days of age)): 19.4 g/day
- Mortality rate (Step 1 (1~7 days of age)): 0.0%
- Weight gain (Step 1 (1~7 days of age)): 14.3 g/day
- Weight (Step 1 (1~7 days of age), 0.02% of each additive in formulated feed): 144.0 g
- Feed conversion ratio (Step 2 (8~21 days of age)): 1.74^a
- Feed intake (Step 2 (8~21 days of age)): 69.3 g/day
- Mortality rate (Step 2 (8~21 days of age)): 1.3%
- Weight (Step 2 (8~21 days of age)): 705.4^e g
- Weight gain (Step 2 (8~21 days of age)): 40.1^d g/day
- Feed conversion ratio (Step 3 (22~35 days of age)): 1.88
- Feed intake (Step 3 (22~35 days of age)): 236.9 g/day
- Mortality rate (Step 3 (22~35 days of age)): 3.8%
- Weight (Step 3 (22~35 days of age)): 1592.3^e g
- Weight gain (Step 3 (22~35 days of age)): 126.7^c g/day
- Feed conversion ratio (Total (1~35 days of age)): 1.79^a
- Feed intake (Total (1~35 days of age)): 98.6^bc g/day
- Survival rate (Total (1~35 days of age)): 95.0%
- Weight gain (Total (1~35 days of age)): 55.3^e g/day
- weight gain, feed intake and feed conversion ratios compared with the control group (entire breeding period, result in words): no significant difference
